# Key:
# Assay in all cases: NCI-60 one-dose assay
# Assay type in all cases: cell-based
# CAKI-1 = conditions: Homo sapiens, CAKI-1 (Renal Cancer), read-out: Cell Inhibition Percent
# Method: (§1) The final compounds were submitted to the National Cancer Institute, Bethesda, USA, for screening in vitro for anti-cancer. […] compounds, 4a–j, 5, and 6, were selected according to the Development Therapeutic Program (DTP) protocol. The selected compounds were evaluated for their in vitro cytotoxic activity against a panel of sixty cancer cell lines (NCI-60 cell line panel) derived from six cell lines panel of leukemia, nine cell lines of lung cancer, six cell lines of CNS cancer, seven cell lines of colon cancer, eight cell lines of melanoma, six cell lines of ovarian cancer, eight cell lines of renal cancer, two cell lines of prostate cancer, and eight cell lines of breast cancer, representing the full nine human systems as leukemia, melanoma, and cancers of the lung, colon, brain, breast, ovary, kidney, and prostate.
# (§2) The selected compounds 4a–j, 5, and 6 were tested at a single concentration of 10 µM. The screening results for the selected compounds are illustrated in Table 1.
# (§3) The NCI anti-cancer screening methodology has been described in detail elsewhere (http://www.dtp.nci.nih.gov, accessed on 20 February 2021). Following the Drug Evaluation Branch protocol, National Cancer Institute, Bethesda, USA, a primary anti-cancer assay was performed on approximately 60 human tumor cell line panels derived from nine neoplastic diseases.
# COLO 205 = conditions: Homo sapiens, COLO 205 (Colon Cancer), read-out: Cell Inhibition Percent
# Method: as §1, §2, §3
# DU-145 = conditions: Homo sapiens, DU-145 (Prostate Cancer), read-out: Cell Inhibition Percent
# Method: as §1, §2, §3
# EKVX = conditions: Homo sapiens, EKVX (Non-Small Cell Lung Cancer), read-out: Cell Inhibition Percent
# Method: as §1, §2, §3
# HCC-2998 = conditions: Homo sapiens, HCC-2998 (Colon Cancer), read-out: Cell Inhibition Percent
# Method: as §1, §2, §3
# HCT-15 = conditions: Homo sapiens, HCT-15 (Colon Cancer), read-out: Cell Inhibition Percent
# Method: as §1, §2, §3
# HL-60(TB) = conditions: Homo sapiens, HL-60(TB) (Leukemia), read-out: Cell Inhibition Percent
# Method: as §1, §2, §3
# HOP-62 = conditions: Homo sapiens, HOP-62 (Non-Small Cell Lung Cancer), read-out: Cell Inhibition Percent
# Method: as §1, §2, §3
# HT29 = conditions: Homo sapiens, HT-29, HT29 (Colon Cancer), read-out: Cell Inhibition Percent
# Method: as §1, §2, §3
# IGROV1 = conditions: Homo sapiens, IGROV-1, IGROV1 (ovarian cancer), read-out: Cell Inhibition Percent
# Method: as §1, §2, §3
# KM12 = conditions: Homo sapiens, KM12 (Colon Cancer), read-out: Cell Inhibition Percent
# Method: as §1, §2, §3
# LOX IMVI = conditions: Homo sapiens, LOX IMVI (Melanoma), read-out: Cell Inhibition Percent
# Method: as §1, §2, §3
# M14 = conditions: Homo sapiens, M14 (Melanoma), read-out: Cell Inhibition Percent
# Method: as §1, §2, §3
# MALME-3M = conditions: Homo sapiens, MALME-3M (Melanoma), read-out: Cell Inhibition Percent
# Method: as §1, §2, §3
# MDA-MB-435 = conditions: Homo sapiens, MDA-MB-435 (Melanoma), read-out: Cell Inhibition Percent
# Method: as §1, §2, §3
# MDA-MB-468 = conditions: Homo sapiens, MDA-MB-468 (Breast Cancer), read-out: Cell Inhibition Percent
# Method: as §1, §2, §3
# NCI-H226 = conditions: Homo sapiens, NCI-H226 (Non-Small Cell Lung Cancer), read-out: Cell Inhibition Percent
# Method: as §1, §2, §3
# NCI-H23 = conditions: Homo sapiens, NCI-H23 (Non-Small Cell Lung Cancer), read-out: Cell Inhibition Percent
# Method: as §1, §2, §3
# OVCAR-3 = conditions: Homo sapiens, OVCAR-3 (ovarian cancer), read-out: Cell Inhibition Percent
# Method: as §1, §2, §3
# OVCAR-4 = conditions: Homo sapiens, OVCAR-4 (ovarian cancer), read-out: Cell Inhibition Percent
# Method: as §1, §2, §3
# PC-3 = conditions: Homo sapiens, PC-3 (Prostate Cancer), read-out: Cell Inhibition Percent
# Method: as §1, §2, §3
# RPMI-8226 = conditions: Homo sapiens, RPMI-8226 (Leukemia), read-out: Cell Inhibition Percent
# Method: as §1, §2, §3
# SF-295 = conditions: Homo sapiens, SF-295 (CNS cancer), read-out: Cell Inhibition Percent
# Method: as §1, §2, §3
# SK-MEL-2 = conditions: Homo sapiens, SK-MEL-2 (Melanoma), read-out: Cell Inhibition Percent
# Method: as §1, §2, §3
# SK-MEL-5 = conditions: Homo sapiens, SK-MEL-5 (Melanoma), read-out: Cell Inhibition Percent
# Method: as §1, §2, §3
# SK-OV-3 = conditions: Homo sapiens, SK-OV-3 (ovarian cancer), read-out: Cell Inhibition Percent
# Method: as §1, §2, §3
# SW-620 = conditions: Homo sapiens, SW-620 (Colon Cancer), read-out: Cell Inhibition Percent
# Method: as §1, §2, §3
# TK-10 = conditions: Homo sapiens, TK-10 (Renal Cancer), read-out: Cell Inhibition Percent
# Method: as §1, §2, §3
# U251 = conditions: Homo sapiens, U-251, U251 (CNS cancer), read-out: Cell Inhibition Percent
# Method: as §1, §2, §3
# UACC-257 = conditions: Homo sapiens, UACC-257 (Melanoma), read-out: Cell Inhibition Percent
# Method: as §1, §2, §3
# UO-31 = conditions: Homo sapiens, UO-31 (Renal Cancer), read-out: Cell Inhibition Percent
# Method: as §1, §2, §3
Structure (SMILES),inhibition at 10 µM (CAKI-1),inhibition at 10 µM (COLO 205),inhibition at 10 µM (DU-145),inhibition at 10 µM (EKVX),inhibition at 10 µM (HCC-2998),inhibition at 10 µM (HCT-15),inhibition at 10 µM (HL-60(TB)),inhibition at 10 µM (HOP-62),inhibition at 10 µM (HT29),inhibition at 10 µM (IGROV1),inhibition at 10 µM (KM12),inhibition at 10 µM (LOX IMVI),inhibition at 10 µM (M14),inhibition at 10 µM (MALME-3M),inhibition at 10 µM (MDA-MB-435),inhibition at 10 µM (MDA-MB-468),inhibition at 10 µM (NCI-H226),inhibition at 10 µM (NCI-H23),inhibition at 10 µM (OVCAR-3),inhibition at 10 µM (OVCAR-4),further results
"COc1cc(/C=N/NC(=O)c2ccc3[nH]c(-c4ccc(Cl)cc4)nc3c2)cc(OC)c1OC [Compound 4h, N′-(3,4,5-Trimethoxybenzylidene)-2-(4-chlorophenyl)-1H-benzimidazole-5 carbohydrazide]",24%,54.3%,2.57%,4.23%,20%,3.98%,55.1%,18.3%,60.1%,31.6%,38.2%,49.4%,58%,71.6%,36%,0%,24%,46.3%,38.4%,0%,inhibition at 10 µM (PC-3): 40.1%; inhibition at 10 µM (RPMI-8226): 80.1%; inhibition at 10 µM (SF-295): 56%; inhibition at 10 µM (SK-MEL-2): 16.4%; inhibition at 10 µM (SK-MEL-5): 58.1%; inhibition at 10 µM (SK-OV-3): 12.2%; inhibition at 10 µM (SW-620): 21.3%; inhibition at 10 µM (TK-10): 22.6%; inhibition at 10 µM (U251): 46.8%; inhibition at 10 µM (UACC-257): 45.6%; inhibition at 10 µM (UO-31): 11.7%
"O=C(N/N=C/c1ccc(O)cc1)c1ccc2[nH]c(-c3ccc(Cl)cc3)nc2c1 [Compound 4i, N′-(4-Hydroxybenzylidene)-2-(4-chlorophenyl)-1H-benzimidazole-5-carbohydrazide]",1.91%,0.44%,0%,0%,0%,0%,0%,0%,0%,17%,2.85%,11.9%,0.44%,21.4%,0%,0%,20.6%,4.44%,0%,0%,inhibition at 10 µM (PC-3): 0%; inhibition at 10 µM (RPMI-8226): 1.52%; inhibition at 10 µM (SF-295): 0%; inhibition at 10 µM (SK-MEL-2): 0%; inhibition at 10 µM (SK-MEL-5): 4.32%; inhibition at 10 µM (SK-OV-3): 5.09%; inhibition at 10 µM (SW-620): 0%; inhibition at 10 µM (TK-10): 0%; inhibition at 10 µM (U251): 0%; inhibition at 10 µM (UACC-257): 0%; inhibition at 10 µM (UO-31): 15.9%
"CCn1c(-c2ccc3[nH]c(-c4ccc(Cl)cc4)nc3c2)n[nH]c1=S [Compound 6, 4-ethyl-5-(2-(4-chlorophenyl)-1H-benzimidazol-5-yl)-2,4-dihydro-3H-1,2,4triazole-3-thione]",7.78%,0%,0%,0.44%,0%,1.62%,0%,1.71%,2.07%,0.16%,0%,0%,0%,2.41%,0%,0%,1.97%,4.53%,0%,0.6%,inhibition at 10 µM (PC-3): 7.76%; inhibition at 10 µM (RPMI-8226): 0.68%; inhibition at 10 µM (SF-295): 0.56%; inhibition at 10 µM (SK-MEL-2): 0%; inhibition at 10 µM (SK-MEL-5): 2.04%; inhibition at 10 µM (SK-OV-3): 0%; inhibition at 10 µM (SW-620): 0%; inhibition at 10 µM (TK-10): 0%; inhibition at 10 µM (U251): 0%; inhibition at 10 µM (UACC-257): 0%; inhibition at 10 µM (UO-31): 16.8%

# From PMC10819888, “Benzimidazole-Based Derivatives as Apoptotic Antiproliferative Agents: Design, Synthesis, Docking, and Mechanistic Studies” (Molecules, 2024)
